From patent US11957687B2 (REGENERON PHARMACEUTICALS, INC., priority 2019, dated 2024)

Each compound was assayed against HSD17B13 (Homo sapiens (Human), UniProt Q7Z5P4) (assay: HSD17B13 enzymatic inhibition assay (150 nM or 50 nM HSD17B13)). Conditions: 50 nM HSD17B13; read-out: Inhibition of 50 nM of HSD17B13 IC50.
Type: biochemical

Sequence of HSD17B13 (Q7Z5P4 other isoform, or with tags, fused parts or gaps): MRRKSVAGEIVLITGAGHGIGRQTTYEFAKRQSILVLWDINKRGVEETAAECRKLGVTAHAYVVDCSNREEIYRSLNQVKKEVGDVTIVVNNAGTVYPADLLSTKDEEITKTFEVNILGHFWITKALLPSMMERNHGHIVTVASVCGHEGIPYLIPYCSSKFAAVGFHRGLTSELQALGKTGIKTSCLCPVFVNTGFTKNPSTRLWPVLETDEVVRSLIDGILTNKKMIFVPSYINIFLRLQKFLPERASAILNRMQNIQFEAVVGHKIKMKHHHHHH

SMILES	IC50 [nM]
C=CCc1cc(C(=O)NC2c3ccc(C)cc3Oc3cccc(C)c32)c(=O)[nH]c1C(F)(F)F (stereo not shown) [Compound 180, 5-allyl-N-(1,6-dimethyl-9H-xanthen-9-yl)-2-oxo-6-(trifluoromethyl)-1,2-dihydropyridine-3-carboxamide]	160
CCCc1cc(C(=O)NC2c3ccc(C)cc3Oc3cccc(C)c32)c(=O)[nH]c1C(F)(F)F (stereo not shown) [Compound 181, N-(1,6-dimethyl-9H-xanthen-9-yl)-2-oxo-5-propyl-6-(trifluoromethyl)-1,2-dihydropyridine-3-carboxamide]	390
Cc1ccc2c(c1)Oc1cccc(C)c1C2NC(=O)c1cc(CCc2ccccc2)c(C(F)(F)F)[nH]c1=O (stereo not shown) [Compound 184, N-(1,6-dimethyl-9H-xanthen-9-yl)-2-oxo-5-phenethyl-6-(trifluoromethyl)-1,2-dihydropyridine-3-carboxamide]	150
Cc1ccc2c(c1)Oc1cccc(C)c1C2NC(=O)c1cc(CO)c(C(F)(F)F)[nH]c1=O (stereo not shown) [Compound 185, N-(1,6-dimethyl-9H-xanthen-9-yl)-5-(hydroxymethyl)-2-oxo-6-(trifluoromethyl)-1,2-dihydropyridine-3-carboxamide]	730
Cc1ccc2c(c1)Oc1cccc(C)c1C2NC(=O)c1cc(C2CCCCC2)c(C(F)(F)F)[nH]c1=O (stereo not shown) [Compound 186, 5-cyclohexyl-N-(1,6-dimethyl-9H-xanthen-9-yl)-2-oxo-6-(trifluoromethyl)-1,2-dihydropyridine-3-carboxamide]	1830
Cc1ccc2c(c1)Oc1cccc(C)c1C2NC(=O)c1cc(C2=CCCCC2)c(C(F)(F)F)[nH]c1=O (stereo not shown) [Compound 187, 5-(cyclohex-1-en-1-yl)-N-(1,6-dimethyl-9H-xanthen-9-yl)-2-oxo-6-(trifluoromethyl)-1,2-dihydropyridine-3-carboxamide]	770
Cc1ccc2c(c1)Oc1cccc(C)c1C2NC(=O)c1cc(C2=CCOCC2)c(C(F)(F)F)[nH]c1=O (stereo not shown) [Compound 188, 5-(3,6-dihydro-2H-pyran-4-yl)-N-(1,6-dimethyl-9H-xanthen-9-yl)-2-oxo-6-(trifluoromethyl)-1,2-dihydropyridine-3-carboxamide]	280
Cc1ccc2c(c1)Oc1cc(C)ccc1C2NC(=O)c1cc(Br)c(C(F)(F)F)[nH]c1=O [Compound 189, 5-bromo-N-(3,6-dimethyl-9H-xanthen-9-yl)-2-oxo-6-(trifluoromethyl)-1,2-dihydropyridine-3-carboxamide]	70
O=C(NC1c2ccc(Cl)cc2Oc2cccc(Cl)c21)c1cnc(C(F)(F)F)[nH]c1=O (stereo not shown) [Compound 191, N-(1,6-dichloro-9H-xanthen-9-yl)-6-oxo-2-(trifluoromethyl)-1,6-dihydropyrimidine-5-carboxamide]	870
O=C(NC1c2ccc(Cl)cc2Oc2cc(Cl)ccc21)c1cnc(C(F)(F)F)[nH]c1=O [Compound 192, N-(3,6-dichloro-9H-xanthen-9-yl)-6-oxo-2-(trifluoromethyl)-1,6-dihydropyrimidine-5-carboxamide]	230
Cc1ccc2c(c1)Oc1cccc(C)c1C2NC(=O)c1cnc(C(F)(F)F)[nH]c1=O (stereo not shown) [Compound 193, N-(1,6-dimethyl-9H-xanthen-9-yl)-6-oxo-2-(trifluoromethyl)-1,6-dihydropyrimidine-5-carboxamide]	1020
Cc1cc(C(F)(F)F)[nH]c(=O)c1C(=O)NC1c2ccccc2Oc2ccccc21 [Compound 195, 4-methyl-2-oxo-6-(trifluoromethyl)-N-(9H-xanthen-9-yl)-1,2-dihydropyridine-3-carboxamide]	3310
Cc1cc(C(F)(F)F)[nH]c(=O)c1C(=O)NC1c2ccccc2Oc2cc(Cl)ccc21 (stereo not shown) [Compound 196, N-(3-chloro-9H-xanthen-9-yl)-4-methyl-2-oxo-6-(trifluoromethyl)-1,2-dihydropyridine-3-carboxamide]	630
COc1ccc2c(c1)Oc1ccccc1C2NC(=O)c1ccc(C(F)(F)F)[nH]c1=O (stereo not shown) [Compound 197, N-(3-methoxy-9H-xanthen-9-yl)-2-oxo-6-(trifluoromethyl)-1,2-dihydropyridine-3-carboxamide]	1130
Cc1ccc2c(c1)Oc1cccc(C)c1C2NC(=O)c1c(C)cc(C(F)(F)F)[nH]c1=O (stereo not shown) [Compound 199, N-(1,6-dimethyl-9H-xanthen-9-yl)-4-methyl-2-oxo-6-(trifluoromethyl)-1,2-dihydropyridine-3-carboxamide]	5150
Cc1cc(C(F)(F)F)[nH]c(=O)c1C(=O)NC1c2ccc(Cl)cc2Oc2cccc(Cl)c21 (stereo not shown) [Compound 200, N-(1,6-dichloro-9H-xanthen-9-yl)-4-methyl-2-oxo-6-(trifluoromethyl)-1,2-dihydropyridine-3-carboxamide]	> 10000
CCc1cc(C(F)(F)F)[nH]c(=O)c1C(=O)NC1c2ccc(C)cc2Oc2cc(C)ccc21 [Compound 201, N-(3,6-dimethyl-9H-xanthen-9-yl)-4-ethyl-2-oxo-6-(trifluoromethyl)-1,2-dihydropyridine-3-carboxamide]	430

Second part, the compound after the results:

IC50 [nM]	SMILES
350	Cc1ccc2c(c1)Oc1cc(C)ccc1C2NC(=O)c1c(C)cc(C(F)(F)F)[nH]c1=O [Compound 202, N-(3,6-dimethyl-9H-xanthen-9-yl)-4-methyl-2-oxo-6-(trifluoromethyl)-1,2-dihydropyridine-3-carboxamide]
1050	Cc1cc(C(F)(F)F)[nH]c(=O)c1C(=O)NC1c2ccc(Cl)cc2Oc2cc(Cl)ccc21 [Compound 203, N-(3,6-dichloro-9H-xanthen-9-yl)-4-methyl-2-oxo-6-(trifluoromethyl)-1,2-dihydropyridine-3-carboxamide]
> 10000	CCc1cc(C(F)(F)F)[nH]c(=O)c1C(=O)NC1c2ccc(C)cc2Oc2cccc(C)c21 (stereo not shown) [Compound 204, N-(1,6-dimethyl-9H-xanthen-9-yl)-4-ethyl-2-oxo-6-(trifluoromethyl)-1,2-dihydropyridine-3-carboxamide]
> 10000	CCc1cc(C(F)(F)F)[nH]c(=O)c1C(=O)NC1c2ccc(Cl)cc2Oc2cccc(Cl)c21 (stereo not shown) [Compound 205, N-(1,6-dichloro-9H-xanthen-9-yl)-4-ethyl-2-oxo-6-(trifluoromethyl)-1,2-dihydropyridine-3-carboxamide]
290	CCc1cc(C(F)(F)F)[nH]c(=O)c1C(=O)NC1c2ccc(Cl)cc2Oc2cc(Cl)ccc21 [Compound 206, N-(3,6-dichloro-9H-xanthen-9-yl)-4-ethyl-2-oxo-6-(trifluoromethyl)-1,2-dihydropyridine-3-carboxamide]
180	CCCc1cc(C(F)(F)F)[nH]c(=O)c1C(=O)NC1c2ccc(C)cc2Oc2cc(C)ccc21 [Compound 207, N-(3,6-dimethyl-9H-xanthen-9-yl)-2-oxo-4-propyl-6-(trifluoromethyl)-1,2-dihydropyridine-3-carboxamide]
> 10000	CCCc1cc(C(F)(F)F)[nH]c(=O)c1C(=O)NC1c2ccc(C)cc2Oc2cccc(C)c21 (stereo not shown) [Compound 208, N-(1,6-dimethyl-9H-xanthen-9-yl)-2-oxo-4-propyl-6-(trifluoromethyl)-1,2-dihydropyridine-3-carboxamide]
3440	CCCc1cc(C(F)(F)F)[nH]c(=O)c1C(=O)NC1c2ccc(Cl)cc2Oc2cccc(Cl)c21 (stereo not shown) [Compound 209, N-(1,6-dichloro-9H-xanthen-9-yl)-2-oxo-4-propyl-6-(trifluoromethyl)-1,2-dihydropyridine-3-carboxamide]
